{"source": "patent US20240226332A9", "about": "“GENE THERAPY FOR TREM2-ASSOCIATED DISEASES AND DISORDERS” (Eli Lilly and Company, priority 2022, published 2024)", "key": {"[1]": {"tested_on": "iPSC-derived microglia", "assay": "Pharmacological CSF1R-inhibition (PLX3397) cell viability assay in human iPSC-derived microglia", "type": "cell-based", "conditions": "150 nM or 200 nM PLX3397 in 0.1% DMSO, 8 hr, colorimetric viability kit", "protocol": "Methods: The iPSC-derived microglia as described in Example 4 either were treated with excipient (negative control) or were transduced with a rAAV vector having a TREM2 transgene (SEQ ID NO:26) encapsidated in AAV6TM capsid protein (SEQ ID NO:19) at a MOI of 2.0×10^3 vg/cell. 7 days post-transduction, 150 nM or 200 nM of PLX3397 in 0.1% DMSO was added to the cell culture media and incubated for additional 8 hr at 37° C. and 5% CO2. After this period of incubation, cells were assayed for viability using a colorimetric kit (Abcam)."}, "[2]": {"tested_on": "CSF1R-inhibition mouse model (WT C57BL/6 mice fed PLX-chow)", "assay": "In vivo efficacy of TREM2 rAAV in CSF1R-inhibition (PLX) mouse model for CRL", "protocol": "The rAAV was injected at a dose of either 1.8×10^10 vg (4.49×10^10 vg/g brain) or 1.8×10^11 vg (4.49×10^11 vg/g brain), respectively. Vector particles per g brain weight was based on an adult mouse brain weight of 400 mg. At 8 weeks of age (i.e., 4 weeks post-ICV injection), 1 excipient-treated group and both dose-treated groups were fed with PLX-containing mouse chow. Mice were fed with PLX-chow at 185 mg/kg for 1 week and then sacrificed at 9 weeks of age (i.e., 5 weeks post-ICV injection).\nBiodistribution was determined by measuring vg presence using ddPCR (with >50 vg/1 μg gDNA defined as positive)."}}}
{"smiles": "FC(F)(F)c1ccc(CNc2ccc(Cc3c[nH]c4ncc(Cl)cc34)cn2)cn1", "note": "[PLX]", "values": [{"measurement": "cell death (cytotoxicity of PLX treatment)", "setting": "[1]", "result": "about 80%"}, {"measurement": "number of IBA1+ microglia in brain", "setting": "[2]; PLX-chow 185 mg/kg for 1 week, either dose of rAAV+PLX compared to excipient+PLX", "result": "almost complete depletion of microglia throughout the brain"}, {"measurement": "expression of homeostatic microglia genes (P2RY12, HEXB)", "setting": "[2]; PLX-chow 185 mg/kg for 1 week, rAAV+PLX", "result": "decreased expression of genes associated with homeostatic microglia"}, {"measurement": "CSF1R expression (mRNA; protein)", "setting": "[2]; PLX-chow 185 mg/kg for 1 week, rAAV+PLX (both doses) compared to excipient+PLX", "result": "apparent at both the mRNA and protein level"}, {"measurement": "expression of disease associated microglia (DAM) genes (CCL12, CD48, CD68, LYZ1, PTPRC)", "setting": "[2]; excipient+PLX, rAAV+PLX compared to excipient-only", "result": "significant decrease in expression"}]}
